Assay: Fluorescence excitation/emission of the styryl dye library compounds
Type: physicochemical
Conditions: EX/EM peak no. 1

SMILES	EM(nm)	EX(nm)
COc1cc(OC)c(OC)cc1C=Cc1cccc(C)[n+]1C.[I-] [Compound L38]	570 nm	420 nm
COc1cc(C=Cc2ccc3ccccc3[n+]2C)cc(OC)c1OC.[I-] [Compound H13]	590 nm	420 nm
COc1ccc2c(ccc(C=Cc3ccc4ccc5cccc6ccc3c4c56)[n+]2C)c1.[I-] [Compound I41]	630 nm	480 nm
Fc1ccc(C=Cc2cc[n+](C34CC5CC(CC(C5)C3)C4)cc2)cc1.[Br-] [Compound B30]	590 nm	
Cc1ccnc(-c2cc(/C=C/c3ccccn3)cc[n+]2C)c1.[I-] [Compound J40]	580 nm	400 nm
Cc1ccnc(-c2cc(C=Cc3ccc4ccc5cccc6ccc3c4c56)cc[n+]2C)c1.[I-] [Compound J41]	630 nm	460 nm
COc1ccc(C=Cc2cc[n+](C34CC5CC(CC(C5)C3)C4)cc2)c2ccccc12.[Br-] [Compound B14]	550 nm	360-450 nm
Cc1ccccc1C=Cc1ccc2ccccc2[n+]1C.[I-] [Compound H7]	650 nm	420 nm
COc1ccc2c(ccc(C=Cc3cc(OC)c(OC)c(OC)c3)[n+]2C)c1.[I-] [Compound I13]	580 nm	430 nm
COc1ccc(C=Cc2cc[n+](C)c(-c3cc(C)ccn3)c2)cc1OC.[I-] [Compound J11]	560 nm	420 nm
COc1ccc2c(ccc(C=Cc3c(OC)ccc4ccccc34)[n+]2C)c1.[I-] [Compound I23]	550 nm	340-360 nm
COc1ccc2c(ccc(C=Cc3c4ccccc4cc4ccccc34)[n+]2C)c1.[I-] [Compound I34]	650 nm	490 nm
COc1ccc2ccccc2c1C=Cc1cc[n+](C)c(-c2cc(C)ccn2)c1.[I-] [Compound J23]	570 nm	430-460 nm
C[n+]1ccc(/C=C/c2ccc3c(c2)OCO3)cc1Br.[I-] [Compound F39]	540 nm	400-420 nm
Cc1cccc(/C=C/c2c[nH]c3ccccc23)[n+]1C.[I-] [Compound L24]	500 nm	430 nm
COc1ccc2c(ccc(C=Cc3ccc([N+](=O)[O-])cc3)[n+]2C)c1.[I-] [Compound I22]	510 nm	360 nm
C[n+]1ccc(/C=C/c2ccc3c(c2)Cc2ccccc2-3)c2ccccc21.[I-] [Compound G28]	620 nm	450 nm
C[n+]1ccc(C=Cc2ccc(F)cc2)cc1.[I-] [Compound A30]	590 nm	420-440 nm
C[n+]1c(C=Cc2cccc(Br)c2)ccc2ccccc21.[I-] [Compound H4]	640 nm	530 nm
COc1ccc(C=Cc2cc[n+](C)c3ccccc23)cc1OC.[I-] [Compound G11]	600 nm	420-480 nm
Cc1ccc(/C=C/c2ccc3ccccc3[n+]2C)cc1.[I-] [Compound H8]	650 nm	530 nm
COc1ccc2c(ccc(C=Cc3ccccc3F)[n+]2C)c1.[I-] [Compound I29]	580 nm	
CCc1ccc(/C=C/c2ccc3c(c2)OCO3)[n+](C)c1.[I-] [Compound E39]	500 nm	390-420 (broad) nm

SMILES	EM(nm)	EX(nm)
Cc1cccc(/C=C/c2ccc(-c3ccccc3)cc2)[n+]1C.[I-] [Compound L17]	500 nm	420 nm
C[n+]1ccccc1C=Cc1ccc2c(c1)OCO2.[I-] [Compound C39]	520 nm	340 nm
COc1ccc(C=Cc2cccc(C)[n+]2C)c2ccccc12.[I-] [Compound L14]	570 nm	420 (broad) nm
C[n+]1ccc(/C=C/c2ccc(O)cc2)c2ccccc21.[I-] [Compound G16]	560 nm	430 nm
CN(C)c1ccc(C=CC=Cc2cccc[n+]2C)cc1.[I-] [Compound C37]	680 nm	520 nm
C[n+]1ccc(C=Cc2ccc(O)cc2)cc1.[I-] [Compound A16]	510 nm	390-420 nm
CN(C)c1ccc(C=Cc2cc[n+](C)c(Br)c2)c2ccccc12.[I-] [Compound F27]	640 nm	460 nm
COc1cc(OC)c(OC)cc1C=Cc1cc[n+](C)c(Br)c1.[I-] [Compound F38]	540 nm	460 nm
COc1ccc2c(ccc(C=Cc3ccc(OC)c(OC)c3)[n+]2C)c1.[I-] [Compound I11]	560 nm	430 nm
C[n+]1c(C=Cc2ccc(Cl)cc2)ccc2ccccc21.[I-] [Compound H6]	640 nm	530 nm
C[n+]1ccc(C=Cc2ccccc2F)cc1.[I-] [Compound A29]	560 nm	400-420 nm
CCc1ccc(C=Cc2cc(OC)c(OC)c(OC)c2)[n+](C)c1.[I-] [Compound E13]	540 nm	380 nm
CCc1ccc(C=Cc2cc(OC)c(OC)cc2OC)[n+](C)c1.[I-] [Compound E38]	560 nm	430 nm
Fc1ccccc1C=Cc1cc[n+](C23CC4CC(CC(C4)C2)C3)cc1.[Br-] [Compound B29]	560 nm	400-420 nm
C[n+]1c(C=Cc2c3ccccc3cc3ccccc23)ccc2ccccc21.[I-] [Compound H34]	650 nm	460 nm
C[n+]1ccc(/C=C/c2ccc3c(c2)OCO3)c2ccccc21.[I-] [Compound G39]	590 nm	430 nm
C[n+]1ccc(C=Cc2ccc3ccccc3c2)cc1.[I-] [Compound A33]	600 nm	360-420 nm
COc1ccc(C=Cc2cccc[n+]2C)cc1O.[I-] [Compound C15]	500 nm	390 nm
COc1ccc(C=Cc2cc[n+](C)c(-c3cc(C)ccn3)c2)c2ccccc12.[I-] [Compound J14]	580 nm	420-480 nm
C[n+]1ccc(C=Cc2ccc(O)cc2)cc1Br.[I-] [Compound F16]	510 nm	410 nm
COc1cc(OC)c(OC)cc1C=Cc1cc[n+](C)cc1.[I-] [Compound A38]	540 nm	410 nm
COc1cc(C=Cc2cccc[n+]2C)cc(OC)c1OC.[I-] [Compound C13]	540 nm	380 nm
C[n+]1ccc(C=Cc2ccccc2F)c2ccccc21.[I-] [Compound G29]	560 nm	450 nm

SMILES	EM(nm)	EX(nm)
COc1ccc2c(ccc(C=CC=Cc3ccccc3[N+](=O)[O-])[n+]2C)c1.[I-] [Compound I36]	530 nm	360 nm
C[n+]1c(C=Cc2ccc3ccc4cccc5ccc2c3c45)ccc2ccccc21.[I-] [Compound H41]	640 nm	480 nm
CCc1ccc(/C=C/c2ccc(N(C)C)c3ccccc23)[n+](C)c1.[I-] [Compound E27]	620 nm	430 nm
CN(C)c1ccc(C=CC=Cc2cc[n+](C)cc2)cc1.[I-] [Compound A37]	580 nm	460-490 nm
COc1cc(C=Cc2cc[n+](C)cc2)cc(OC)c1OC.[I-] [Compound A13]	550 nm	390 nm
COc1cc(C=Cc2cccc(C)[n+]2C)cc(OC)c1OC.[I-] [Compound L13]	540 nm	380 nm
C[n+]1c(C=Cc2ccc(Br)cc2)ccc2ccccc21.[I-] [Compound H5]	640 nm	480 nm
C[n+]1ccc(C=Cc2cccc3ccccc23)cc1Br.[I-] [Compound F32]	530 nm	410 nm
C[n+]1ccc(C=Cc2ccc([N+](=O)[O-])cc2)cc1.[I-] [Compound A22]	540 nm	400 nm
C[n+]1ccc(C=Cc2ccc3c(c2)OCO3)cc1.[I-] [Compound A39]	540 nm	430 nm
COc1ccc(C=Cc2ccc3ccccc3[n+]2C)cc1OC.[I-] [Compound H11]	570 nm	460 nm
Cc1ccnc(-c2cc(/C=C/c3c[nH]c4ccccc34)cc[n+]2C)c1.[I-] [Compound J24]	560 nm	420-500 nm
CCc1ccc(C=Cc2ccc(OCc3ccccc3)c(OCc3ccccc3)c2)[n+](C)c1.[I-] [Compound E12]	510 nm	400 nm
CN(C)c1ccc(C=Cc2cccc[n+]2C)c2ccccc12.[I-] [Compound C27]	620 nm	450 nm
C[n+]1ccccc1C=Cc1cccc2ccccc12.[I-] [Compound C32]	550 nm	390 nm
Cc1cccc(C=Cc2ccc(O)cc2)[n+]1C.[I-] [Compound L16]	500 nm	390 nm
Cc1ccnc(-c2cc(C=CC=Cc3ccccc3[N+](=O)[O-])cc[n+]2C)c1.[I-] [Compound J36]	540 nm	420 nm
COc1ccc2c(ccc(C=Cc3ccc4c(c3)OCO4)[n+]2C)c1.[I-] [Compound I39]	500 nm	380 nm
COc1ccc(C=Cc2cc[n+](C)c3ccccc23)cc1O.[I-] [Compound G15]	560 nm	420-460 nm
C[n+]1c(/C=C/c2ccccc2)ccc2ccccc21.[I-] [Compound H2]	640 nm	480(weak) nm
COc1ccc(C=Cc2cc[n+](C)cc2)cc1O.[I-] [Compound A15]	510 nm	
CC(=O)Nc1ccc(C=Cc2cc[n+](C34CC5CC(CC(C5)C3)C4)cc2)cc1.[Br-] [Compound B18]	580 nm	420 nm
C[n+]1ccc(C=Cc2ccc(Br)cc2)cc1.[I-] [Compound A5]	540 nm	375 nm
